Data reported in article PMC10504751, “Chalcone/1,3,4-Oxadiazole/Benzimidazole hybrids as novel anti-proliferative agents inducing apoptosis and inhibiting EGFR & BRAFV^600E” (BMC Chemistry, 2023).

Tests used:
Assay in all cases: NCI one-dose SRB anti-proliferative screen
Type in all cases: cell-based
[1] = tested on: MDA-MB-468; settings: Homo sapiens; MDA-MB-468 (Breast Cancer), NCI one dose 10 µM; read-out: Cell growth inhibition %
Summary of the method: (§1)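 Sulforhodamine B colorimetric read-out of growth inhibition across the NCI 60-cell-line, nine-subpanel screen. Each compound was given at one 10 µM dose.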

[2] = tested on: KM12; settings: Homo sapiens; KM12 (Colon Cancer), NCI one dose 10 µM; read-out: Cell growth inhibition %
Summary of the method: as §1

[3] = tested on: OVCAR-8; settings: Homo sapiens; OVCAR-8 (Ovarian Cancer), NCI one dose 10 µM; read-out: Cell growth inhibition %
Summary of the method: as §1

[4] = tested on: UACC-257; settings: Homo sapiens; UACC-257 (Melanoma), NCI one dose 10 µM; read-out: Cell growth inhibition %
Summary of the method: as §1

[5] = tested on: LOX IMVI; settings: Homo sapiens, LOX IMIV (Melanoma), NCI one dose 10 µM, read-out: Cell growth inhibition %
Summary of the method: as §1

[6] = tested on: CCRF-CEM; settings: Homo sapiens; CCRF-CEM (Leukemia), NCI one dose 10 µM; read-out: Cell growth inhibition %
Summary of the method: as §1

[7] = tested on: SN12C; settings: Homo sapiens, SN 12C (Renal Cancer), NCI one dose 10 µM, read-out: Cell growth inhibition %
Summary of the method: as §1

[8] = tested on: ACHN; settings: Homo sapiens; ACHN (Renal Cancer), NCI one dose 10 µM; read-out: Cell growth inhibition %
Summary of the method: as §1

[9] = tested on: OVCAR-4; settings: Homo sapiens; OVCAR-4 (Ovarian Cancer), NCI one dose 10 µM; read-out: Cell growth inhibition %
Summary of the method: as §1

[10] = tested on: OVCAR-5; settings: Homo sapiens; OVCAR-5 (Ovarian Cancer), NCI one dose 10 µM; read-out: Cell growth inhibition %
Summary of the method: as §1

[11] = tested on: NCI-H226; settings: Homo sapiens; NCI-H226 (Non-Small Cell Lung Cancer), NCI one dose 10 µM; read-out: Cell growth inhibition %
Summary of the method: as §1

[12] = tested on: 786-0; settings: Homo sapiens; 786-0 (Renal Cancer), NCI one dose 10 µM; read-out: Cell growth inhibition %
Summary of the method: as §1

[13] = tested on: HCT-15; settings: Homo sapiens; HCT-15 (Colon Cancer), NCI one dose 10 µM; read-out: Cell growth inhibition %
Summary of the method: as §1

[14] = tested on: NCI-H460; settings: Homo sapiens; NCI-H460 (Non-Small Cell Lung Cancer), NCI one dose 10 µM; read-out: Cell growth inhibition %
Summary of the method: as §1

[15] = tested on: MCF7; settings: Homo sapiens; MCF7 (Breast Cancer), NCI one dose 10 µM; read-out: Cell growth inhibition %
Summary of the method: as §1

[16] = tested on: SW-620; settings: Homo sapiens; SW-620 (Colon Cancer), NCI one dose 10 µM; read-out: Cell growth inhibition %
Summary of the method: as §1

[17] = tested on: SK-MEL-2; settings: Homo sapiens; SK-MEL-2 (Melanoma), NCI one dose 10 µM; read-out: Cell growth inhibition %
Summary of the method: as §1

[18] = tested on: OVCAR-3; settings: Homo sapiens; OVCAR-3 (Ovarian Cancer), NCI one dose 10 µM; read-out: Cell growth inhibition %
Summary of the method: as §1

[19] = tested on: U251; settings: Homo sapiens, U-251; U251 (CNS Cancer), NCI one dose 10 µM; read-out: Cell growth inhibition %
Summary of the method: as §1

[20] = tested on: SR; settings: Homo sapiens; SR (Leukemia), NCI one dose 10 µM; read-out: Cell growth inhibition %
Summary of the method: as §1

[21] = tested on: RPMI-8226; settings: Homo sapiens; RPMI-8226 (Leukemia), NCI one dose 10 µM; read-out: Cell growth inhibition %
Summary of the method: as §1

[22] = tested on: PC-3; settings: Homo sapiens; PC-3 (Prostate Cancer), NCI one dose 10 µM; read-out: Cell growth inhibition %
Summary of the method: as §1

[23] = tested on: SK-OV-3; settings: Homo sapiens; SK-OV-3 (Ovarian Cancer), NCI one dose 10 µM; read-out: Cell growth inhibition %
Summary of the method: as §1

[24] = tested on: UO-31; settings: Homo sapiens; UO-31 (Renal Cancer), NCI one dose 10 µM; read-out: Cell growth inhibition %
Summary of the method: as §1

[25] = tested on: IGROV1; settings: Homo sapiens, IGROV-1; IGROV1 (Ovarian Cancer), NCI one dose 10 µM; read-out: Cell growth inhibition %
Summary of the method: as §1

[26] = tested on: NCI-H23; settings: Homo sapiens; NCI-H23 (Non-Small Cell Lung Cancer), NCI one dose 10 µM; read-out: Cell growth inhibition %
Summary of the method: as §1

[27] = tested on: HS 578T; settings: Homo sapiens; HS 578T (Breast Cancer), NCI one dose 10 µM; read-out: Cell growth inhibition %
Summary of the method: as §1

[28] = tested on: SF-295; settings: Homo sapiens; SF-295 (CNS Cancer), NCI one dose 10 µM; read-out: Cell growth inhibition %
Summary of the method: as §1

[29] = tested on: CAKI-1; settings: Homo sapiens; CAKI-1 (Renal Cancer), NCI one dose 10 µM; read-out: Cell growth inhibition %
Summary of the method: as §1

[30] = tested on: BT-549; settings: Homo sapiens; BT-549 (Breast Cancer), NCI one dose 10 µM; read-out: Cell growth inhibition %
Summary of the method: as §1

[31] = tested on: HT29; settings: Homo sapiens, HT-29; HT29 (Colon Cancer), NCI one dose 10 µM; read-out: Cell growth inhibition %
Summary of the method: as §1

[32] = tested on: DU-145; settings: Homo sapiens; DU-145 (Prostate Cancer), NCI one dose 10 µM; read-out: Cell growth inhibition %
Summary of the method: as §1

Compound	inhibition at 10 µM [1] [%]	inhibition at 10 µM [2] [%]	inhibition at 10 µM [3] [%]	inhibition at 10 µM [4] [%]	inhibition at 10 µM [5] [%]	inhibition at 10 µM [6] [%]	inhibition at 10 µM [7] [%]	inhibition at 10 µM [8] [%]	inhibition at 10 µM [9] [%]	inhibition at 10 µM [10] [%]	inhibition at 10 µM [11] [%]	inhibition at 10 µM [12] [%]	inhibition at 10 µM [13] [%]	inhibition at 10 µM [14] [%]	inhibition at 10 µM [15] [%]	inhibition at 10 µM [16] [%]	inhibition at 10 µM [17] [%]	inhibition at 10 µM [18] [%]	inhibition at 10 µM [19] [%]	inhibition at 10 µM [20] [%]	other results
COc1ccc(-c2nc3cc(-c4nnc(SCC(=O)Nc5ccc(C(=O)/C=C/c6ccccc6)cc5)o4)ccc3[nH]2)cc1OC [Compound 7p, 2-{5-[2-(3,4-Dimethoxyphenyl)-1 H-benzo[d]imidazol-5-yl]-1,3,4-oxadiazol-2-ylthio}-N-{4-[(E)-3-phenylacryloyl]phenyl}acetamide]	0	0.98	0	0	112	11.6	5.25	3.66	0	0.55	1.84	0.75	8.17	0	21.7	0	0	0	6.84	16.4	inhibition at 10 µM [21]: 36%; inhibition at 10 µM [22]: 0%; inhibition at 10 µM [23]: 0%; inhibition at 10 µM [24]: 11.5%; inhibition at 10 µM [25]: 3.63%; inhibition at 10 µM [26]: 0.22%; inhibition at 10 µM [27]: 3.94%; inhibition at 10 µM [28]: 5.09%; inhibition at 10 µM [29]: 2.96%; inhibition at 10 µM [30]: 5.86%; inhibition at 10 µM [31]: 0%; inhibition at 10 µM [32]: 0%
COc1ccc(-c2nc3cc(-c4nnc(SCC(=O)Nc5ccc(C(=O)/C=C/c6ccc(Cl)cc6)cc5)o4)ccc3[nH]2)cc1OC [Compound 7q, 2-{5-[2-(3,4-Dimethoxyphenyl)-1 H-benzo[d]imidazol-5-yl]-1,3,4-oxadiazol-2-ylthio}-N-{4-[(E)-3-(4-chlorophenyl)acryloyl]phenyl}acetamide]	0	0	0	0	96.8	0	5.1	5.74	0	4.8	1.46	0	2.92	0	24.1	0	0	0	0	27	inhibition at 10 µM [21]: 24.5%; inhibition at 10 µM [22]: 2.29%; inhibition at 10 µM [23]: 0%; inhibition at 10 µM [24]: 13%; inhibition at 10 µM [25]: 8.1%; inhibition at 10 µM [26]: 0%; inhibition at 10 µM [27]: 3.98%; inhibition at 10 µM [28]: 1.96%; inhibition at 10 µM [29]: 0%; inhibition at 10 µM [30]: 0%; inhibition at 10 µM [31]: 0%; inhibition at 10 µM [32]: 0%
COc1ccc(/C=C/C(=O)c2ccc(NC(=O)CSc3nnc(-c4ccc5[nH]c(-c6ccc(OC)c(OC)c6)nc5c4)o3)cc2)cc1 [Compound 7r, 2-{5-[2-(3,4-Dimethoxyphenyl)-1 H-benzo[d]imidazol-5-yl]-1,3,4-oxadiazol-2-ylthio}-N-{4-[(E)-3-(4-methoxyphenyl)acryloyl]phenyl}acetamide]	0	0	11.1	0	20.2	38.6	6.98	2.15	0	0	2.08	0	2.32	0	24.7	0	0	0	0	30.6	inhibition at 10 µM [21]: 14.7%; inhibition at 10 µM [22]: 7.58%; inhibition at 10 µM [23]: 0%; inhibition at 10 µM [24]: 12.4%; inhibition at 10 µM [25]: 2.07%; inhibition at 10 µM [26]: 5.15%; inhibition at 10 µM [27]: 13.2%; inhibition at 10 µM [28]: 3.2%; inhibition at 10 µM [29]: 0.08%; inhibition at 10 µM [30]: 5.47%; inhibition at 10 µM [31]: 0%; inhibition at 10 µM [32]: 0%
COc1cc(-c2nc3cc(-c4nnc(SCC(=O)Nc5ccc(C(=O)/C=C/c6ccccc6)cc5)o4)ccc3[nH]2)cc(OC)c1OC [Compound 7u, 2-{5-[2-(3,4,5-Trimethoxyphenyl)-1 H-benzo[d]imidazol-5-yl]-1,3,4-oxadiazol-2-ylthio}-N-{4-[(E)-3-phenylacryloyl]phenyl}acetamide]	0	0.98	10.6	0	22	21.9	13.2	1.08	0	0	10.4	0	12.3	0	44.7	0	0	0	9.89	40.3	inhibition at 10 µM [21]: 24.2%; inhibition at 10 µM [22]: 9.18%; inhibition at 10 µM [23]: 0%; inhibition at 10 µM [24]: 21%; inhibition at 10 µM [25]: 29%; inhibition at 10 µM [26]: 3.04%; inhibition at 10 µM [27]: 9.37%; inhibition at 10 µM [28]: 2%; inhibition at 10 µM [29]: 0%; inhibition at 10 µM [30]: 28.9%; inhibition at 10 µM [31]: 0%; inhibition at 10 µM [32]: 0%
